Test results reported in patent publication US11753445B2, “Therapeutic peptides” (COHBAR, INC., priority 2016, dated 2023).
Values belong to the compound of their own block, whether it stands above or below them. Ends that are not written are not given here.

Experiments:
[1] = test system: 3T3-L1 Adipocytes; assay: Free fatty acid levels in cultured mouse 3T3-L1 adipocytes, isoproterenol stimulated (Example 17); assay type: cell-based; settings: Peptide Concentration 25 μM; isoproterenol 1 nM
Experimental: Mouse 3T3-L1 cells were seeded at a density between 1,000-20,000 cells per well on 96-well, 48-well, or 24-well plates in Pre-adipocyte Medium (Zen-Bio, Durham, N.C.) and grown to confluence at 37° C. in a humidified atmosphere of 5% CO2/95% air. Two days after confluence, cells were placed in Adipocyte Differentiation Medium (Zen-Bio, Durham, N.C.) and cultured for three additional days at 37° C. in a humidified atmosphere of 5% CO2/95% air. The culture media was then replaced with Adipocyte Maintenance Medium (Zen-Bio) and the cells were maintained for an additional 9-14 days at 37° C. in a humidified atmosphere of 5% CO2/95% air with partial medium replacement every other day. Following 12-17 days of differentiation, test peptides were added at a final concentration of 25-50 μM and incubated for 18-20 hours in Adipocyte Maintenance Medium at 37° C. in a humidified atmosphere of 5% CO2/95%. After the media incubation, media was removed and exchanged with Assay Buffer (Zen-Bio) containing isoproterenol (1 nM) (added to all samples except untreated controls) and the test peptides. Cells were incubated for a further 3 hours at 37° C. in a humidified atmosphere of 5% CO2/95%. Free fatty acid concentrations in the media were determined using a Free Fatty Acid Assay Kit (Zen-Bio) according to the manufacturer's instructions using a plate reader (540 nm).
Absorbance values were corrected for untreated background and expressed relative to isoproterenol treated cells. Treatment with isoproterenol (1 nM) alone was used as the free fatty acid level stimulatory control. The relative standard deviation of the isoproterenol control was <10%. […] Free fatty acid levels for insulin (100 nM) treatment were <5% of the isoproterenol control value.

[2] = test system: Diet Induced Obese (DIO) mice; assay: Body weight and fat mass in Diet Induced Obese mice, 10 days (Example 20); assay type: in vivo, Male C57BL/6 mice; settings: male DIO mice, N = 8, Mean (SEM)
Experimental: Male C57BL/6 mice were maintained on a high fat diet for 18 weeks to develop diet induced obesity. Animals were randomized to treatment groups based on blood glucose levels and body weight. The peptides of the invention were administered to two groups of male DIG mice once or twice daily by intraperitoneal or subcutaneous injection at a doses of 5 to 15 mg/kg/dose for 10 days (N=8 animals per treatment group). An additional group of male DIG mice (n=8) received vehicle (water or saline) alone. Body weight, blood glucose levels and food intake were monitored. Body mass distribution (fat vs lean) was determined by quantitative whole body NMR prior to dosing and at the end of dosing. Administration of the peptides of the invention produced body weight loss and/or decrease in fat mass from baseline values (Table 18).

[3] = test system: Diet Induced Obese (DIO) mice; assay: Body weight and fat mass in Diet Induced Obese mice, 21-day study (Example 7); assay type: in vivo, Male C57BL/6 mice; settings: male DIO mice, Mean (SD)
Experimental: Male C57BL/6 mice were maintained on a high fat diet for 12 to 22 weeks to develop diet induced obesity. Animals were randomized to treatment groups based on blood glucose levels and body weight. The peptides (SEQ ID No: 208 and SEQ ID NO: 210) were each administered to a group of male DIO mice twice daily by appropriate routes at a dose of 15 mg/kg/dose for 21 days (N=8 to 12 animals per treatment group). […] Metabolic parameters including body weight, blood glucose levels and food intake were monitored. Body mass distribution (fat vs lean) was determined where appropriate by quantitative whole body NMR prior to dosing and at the end of dosing.

[4] = test system: 3T3-L1 Adipocytes; assay: Free fatty acid levels in cultured mouse 3T3-L1 adipocytes, isoproterenol stimulated (Example 2); assay type: cell-based; settings: test peptides 25 μM; isoproterenol 1 nM
Outline: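 3T3-L1 cells differentiated 12–17 days into adipocytes, then exposed to test peptides at 25 μM final for 18–20 h, then 1 h, then 3 h with isoproterenol (1 nM) at 37 °C. Free fatty acids in the medium measured colorimetrically at 540 nm, corrected for untreated background and expressed relative to isoproterenol-only cells.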

[5] = test system: 3T3-L1 Adipocytes; assay: Free fatty acid levels in cultured mouse 3T3-L1 adipocytes, forskolin stimulated (Example 3); assay type: cell-based; settings: test peptides 25 μM; forskolin 1 μM
Outline: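 Mouse 3T3-L1 cells differentiated 12–17 days, then exposed to test peptides (25 μM) for 18–20 h, fresh peptide 1 h, then 3 h with 1 μM forskolin. Free fatty acids in medium read colorimetrically at 540 nm. Values background-corrected and expressed relative to forskolin-only cells.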

[6] = test system: Human Primary Adipocytes; assay: Free fatty acid levels in cultured human primary adipocytes, isoproterenol stimulated (Example 4); assay type: cell-based; settings: test peptides 25 μM; isoproterenol 1 nM
Experimental: Human primary adipocytes were seeded at 5,000-100,000 cells per well on 96-well, 48-well, or 24-well plates in Pre-adipocyte Medium (Zen-Bio, Durham, N.C.) and grown to confluence at 37° C. in a humidified atmosphere of 5% CO2/95% air. Two days after confluence, cells were placed in Adipocyte Differentiation Medium (Zen-Bio, Durham, N.C.) and cultured for three additional days at 37° C. in a humidified atmosphere of 5% CO2/95% air. The culture media was then replaced with Adipocyte Maintenance Medium (Zen-Bio) and the cells were maintained for an additional 11-21 days at 37° C. in a humidified atmosphere of 5% CO2/95% air with partial medium replacement every other day. Following 14-24 days of differentiation, test peptides were added at a final concentration of 25 μM and incubated for 18-20 hours in Adipocyte Maintenance Medium at 37° C. in a humidified atmosphere of 5% CO2/95%. After 18-20 hours, the media was exchanged with fresh Adipocyte Maintenance Medium containing test peptides and incubated for 1 h at 37° C. in a humidified atmosphere of 5% CO2/95%. After 1 h media was exchanged with Assay Buffer (Zen-Bio) containing isoproterenol (1 nM) (added to all samples except untreated controls) and test peptides. Cells were incubated for a further 3 hours at 37° C. in a humidified atmosphere of 5% CO2/95%. Free fatty acid concentrations in the media were determined using a Free Fatty Acid Assay Kit (Zen-Bio) according to the manufacturer's instructions using a plate reader (540 nm). Absorbance values were corrected for untreated background and expressed relative to isoproterenol treated cells. Treatment with isoproterenol (1 nM) alone was used as the free fatty acid level stimulatory control. The relative standard deviation of the isoproterenol control was <14%. […] Free fatty acid levels for insulin (100 nM) treatment were <5% of the isoproterenol control value.

[7] = test system: Human Primary Adipocytes; assay: Free fatty acid levels in cultured human primary adipocytes, forskolin stimulated (Example 5); assay type: cell-based; settings: test peptides 25 μM; forskolin 1 μM
Outline: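 Differentiated human primary adipocytes (14–24 days) were exposed to peptides at 25 μM for 18–20 h and 1 h, then stimulated with 1 μM forskolin plus peptide for 3 h at 37 °C. Medium free fatty acids were measured colorimetrically (540 nm), background-corrected and expressed relative to forskolin-only cells.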

[8] = Stability in mouse plasma, peptides 100 uM (Example 14); assay type: in vitro ADME; settings: mouse plasma 37° C., peptide 100 uM; for remaining at 0.25 h, 100 uM / remaining at 0.5 h, 100 uM / remaining at 1 h, 100 uM / remaining at 2 h, 100 uM / remaining at 3 h, 100 uM: pooled mouse plasma; for remaining at 0.25 h, 100 uM: 15 min, read-out: % Remaining at Each Time Point: 15 min; for remaining at 0.5 h, 100 uM: 30 min, read-out: % Remaining at Each Time Point: 30 min; for remaining at 1 h, 100 uM: 60 min, read-out: % Remaining at Each Time Point: 60 min; for remaining at 2 h, 100 uM: 120 min, read-out: % Remaining at Each Time Point: 120 min; for remaining at 3 h, 100 uM: 180 min, read-out: % Remaining at Each Time Point: 180 min
Experimental: (§1) Peptides (100 uM) were incubated in pooled mouse plasma at 37° C. and samples were removed and immediately analyzed for the concentration of intact peptide by LC/MS/MS over the course of 3 hours. The percent of peptide remaining in plasma at each time point was calculated relative to the initial peak area (Table 12).

[9] = Stability in mouse plasma, peptides 10 uM (Example 15); assay type: in vitro ADME; settings: mouse plasma 37° C., peptide 10 uM
Experimental: as §1, with “(10” for “(100”, “13).” for “12).”

[10] = 10 days once daily administration 15 mg/kg
[11] = 10 days twice daily intraperitoneal 15 mg/kg

Compound: 357 (PEG600-KRWQEMNYIFYPR) [compound 357]
Free Fatty Acid Levels in 3T3-L1 Adipocytes Expressed as a Percent of Isoproterenol Control: Percent of Control Value [1]: 30.8%
Decrease from Baseline in Body Weight (%) [2, 10]: −1.2 (0.6) %
Decrease from Baseline in Fat Mass (g) [2, 10]: −0.2 (0.2) g
Decrease from Baseline in Body Weight (%) [2, 11]: −3.4 (1.0) %
Decrease from Baseline in Fat Mass (g) [2, 11]: −1.0 (0.4) g

Compound: CCc1ccc(CCOc2ccc(CC3SC(=O)NC3=O)cc2)nc1 (stereo not drawn) [Pioglitazone, pioglitazone, reference compound]
Decrease from Baseline in Body Weight (%) ([3]; 21 days twice daily PO 15 mg/kg/dose): 1.0 (3.1) %

Compound: H-EMNYIFYPR-OH [compound 364]
Free Fatty Acid Levels in 3T3-L1 Adipocytes Expressed as a Percent of Isoproterenol Control: Percent of Control Value [1]: 87.2%
Decrease from Baseline in Body Weight (%) [2, 11]: −6.6 (1.6) %
Decrease from Baseline in Fat Mass (g) [2, 11]: −3.7 (1.2) g

Compound: H-MRWQEMGYIFYPRKLR-OH [SEQ ID NO: 2, reference compound]
Decrease from Baseline in Body Weight (%) ([3]; 21 days twice daily IP 15 mg/kg/dose): −9.3 (5.0) %

% Remaining at Each Time Point: 0 min [8]: 100%
remaining at 0.25 h, 100 uM [8]: 47.5%
remaining at 0.5 h, 100 uM [8]: 38.9%
remaining at 1 h, 100 uM [8]: 38%
remaining at 2 h, 100 uM [8]: 36.3%
remaining at 3 h, 100 uM [8]: 38.3%
Compound: H-MRWQEMQYIFYPR-OH [compound 209]
Free Fatty Acid Levels in 3T3-L1 Adipocytes Expressed as a Percent of Isoproterenol Control: Percent of Control Value [4]: 30.1%
Free Fatty Acid Levels in 3T3-L1 Adipocytes Expressed as a Percent of Forskolin Control: Percent of Control Value [5]: 33.3%
Free Fatty Acid Levels in Human Primary Adipocytes Expressed as a Percent of Isoproterenol Control: Percent of Control Value [6]: 66.8%
Free Fatty Acid Levels in Human Primary Adipocytes Expressed as a Percent of Forskolin Control: Percent of Control Value [7]: 90.1%

Compound: H-NYIFYPR-OH [compound 361]
Free Fatty Acid Levels in 3T3-L1 Adipocytes Expressed as a Percent of Isoproterenol Control: Percent of Control Value [1]: 76.3%
Decrease from Baseline in Body Weight (%) [2, 11]: −5.8 (0.8) %
Decrease from Baseline in Fat Mass (g) [2, 11]: −3.8 (0.5) g

% Remaining at Each Time Point: 0 min ([9]; 0 min): 100%
remaining at 0.25 h, 10 uM ([9]; pooled mouse plasma, 15 min, read-out: % Remaining at Each Time Point: 15 min): 54.3%
remaining at 0.5 h, 10 uM ([9]; pooled mouse plasma, 30 min, read-out: % Remaining at Each Time Point: 30 min): 25.8%
remaining at 1 h, 10 uM ([9]; pooled mouse plasma, 60 min, read-out: % Remaining at Each Time Point: 60 min): 2.05%
remaining at 2 h, 10 uM ([9]; pooled mouse plasma, 120 min, read-out: % Remaining at Each Time Point: 120 min): 0.35%
remaining at 3 h, 10 uM ([9]; pooled mouse plasma, 180 min, read-out: % Remaining at Each Time Point: 180 min): 0.14%
Compound: H-RWQEMNYIFYP-OH [compound 283]
Free Fatty Acid Levels in 3T3-L1 Adipocytes Expressed as a Percent of Isoproterenol Control: Percent of Control Value [4]: 90.8%
Decrease from Baseline in Body Weight (%) [2, 11]: −5.5 (0.4) %
Decrease from Baseline in Fat Mass (g) [2, 11]: −3.0 (0.2) g

% Remaining at Each Time Point: 0 min [8]: 100%
remaining at 0.25 h, 100 uM [8]: 39.5%
remaining at 0.5 h, 100 uM [8]: 38.8%
remaining at 1 h, 100 uM [8]: 54.9%
remaining at 2 h, 100 uM [8]: 24%
remaining at 3 h, 100 uM [8]: 16.3%
Compound: H-WQEMGYIFYPRKLR-OH [compound 39]
Free Fatty Acid Levels in 3T3-L1 Adipocytes Expressed as a Percent of Isoproterenol Control: Percent of Control Value [4]: 84.3%
Free Fatty Acid Levels in 3T3-L1 Adipocytes Expressed as a Percent of Forskolin Control: Percent of Control Value [5]: 114%
Free Fatty Acid Levels in Human Primary Adipocytes Expressed as a Percent of Isoproterenol Control: Percent of Control Value [6]: 22.2%
Free Fatty Acid Levels in Human Primary Adipocytes Expressed as a Percent of Forskolin Control: Percent of Control Value [7]: 80.8%
